The values below come from ChEMBL document CHEMBL1125187, “3-Thienyl- and 3-furylaminobutyric acids. Synthesis and binding GABAB receptor studies” (J Med Chem, 1991).

One assay addresses GABA B receptor (Rattus norvegicus, UniProt O88871+Q9Z0U4). Briefly: Inhibition of [3H]baclofen binding to rat gamma-aminobutyric acid type B receptor. The class given is protein-complex assay.
Assay [1] concerns the target GABA-A receptor; anion channel. Nature of the assay: Inhibition of [3H]muscimol binding to gamma-aminobutyric-acid A (GABA-A) receptor. It is filed as protein-complex assay, Rattus norvegicus.

Sequence of GABA B receptor (Q9Z0U4 whole entry): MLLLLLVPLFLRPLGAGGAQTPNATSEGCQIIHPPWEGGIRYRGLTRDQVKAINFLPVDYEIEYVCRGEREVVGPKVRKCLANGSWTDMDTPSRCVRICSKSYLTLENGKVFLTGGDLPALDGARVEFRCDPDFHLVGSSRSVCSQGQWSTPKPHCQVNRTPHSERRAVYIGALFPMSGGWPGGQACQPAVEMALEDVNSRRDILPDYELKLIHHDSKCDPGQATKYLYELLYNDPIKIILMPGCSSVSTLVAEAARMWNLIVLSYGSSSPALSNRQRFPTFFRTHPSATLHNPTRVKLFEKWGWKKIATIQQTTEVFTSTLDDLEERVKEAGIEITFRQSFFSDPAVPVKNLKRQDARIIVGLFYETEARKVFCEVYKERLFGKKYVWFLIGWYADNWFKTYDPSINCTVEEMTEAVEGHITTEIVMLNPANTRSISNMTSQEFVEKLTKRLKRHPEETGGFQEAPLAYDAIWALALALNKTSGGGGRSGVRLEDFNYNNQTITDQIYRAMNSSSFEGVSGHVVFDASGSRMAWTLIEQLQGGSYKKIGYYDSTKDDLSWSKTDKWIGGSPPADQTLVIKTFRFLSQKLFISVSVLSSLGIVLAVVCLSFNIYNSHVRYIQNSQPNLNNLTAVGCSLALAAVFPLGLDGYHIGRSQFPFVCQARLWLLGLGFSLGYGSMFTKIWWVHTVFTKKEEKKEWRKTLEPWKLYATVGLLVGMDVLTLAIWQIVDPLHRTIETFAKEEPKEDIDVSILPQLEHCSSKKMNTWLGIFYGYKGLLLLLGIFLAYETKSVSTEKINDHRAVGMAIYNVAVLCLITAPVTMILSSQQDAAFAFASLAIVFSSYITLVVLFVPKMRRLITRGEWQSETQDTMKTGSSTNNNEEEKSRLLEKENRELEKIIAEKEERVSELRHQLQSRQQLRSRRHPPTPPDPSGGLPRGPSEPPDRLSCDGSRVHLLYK
Sequence of GABA B receptor (O88871 whole entry): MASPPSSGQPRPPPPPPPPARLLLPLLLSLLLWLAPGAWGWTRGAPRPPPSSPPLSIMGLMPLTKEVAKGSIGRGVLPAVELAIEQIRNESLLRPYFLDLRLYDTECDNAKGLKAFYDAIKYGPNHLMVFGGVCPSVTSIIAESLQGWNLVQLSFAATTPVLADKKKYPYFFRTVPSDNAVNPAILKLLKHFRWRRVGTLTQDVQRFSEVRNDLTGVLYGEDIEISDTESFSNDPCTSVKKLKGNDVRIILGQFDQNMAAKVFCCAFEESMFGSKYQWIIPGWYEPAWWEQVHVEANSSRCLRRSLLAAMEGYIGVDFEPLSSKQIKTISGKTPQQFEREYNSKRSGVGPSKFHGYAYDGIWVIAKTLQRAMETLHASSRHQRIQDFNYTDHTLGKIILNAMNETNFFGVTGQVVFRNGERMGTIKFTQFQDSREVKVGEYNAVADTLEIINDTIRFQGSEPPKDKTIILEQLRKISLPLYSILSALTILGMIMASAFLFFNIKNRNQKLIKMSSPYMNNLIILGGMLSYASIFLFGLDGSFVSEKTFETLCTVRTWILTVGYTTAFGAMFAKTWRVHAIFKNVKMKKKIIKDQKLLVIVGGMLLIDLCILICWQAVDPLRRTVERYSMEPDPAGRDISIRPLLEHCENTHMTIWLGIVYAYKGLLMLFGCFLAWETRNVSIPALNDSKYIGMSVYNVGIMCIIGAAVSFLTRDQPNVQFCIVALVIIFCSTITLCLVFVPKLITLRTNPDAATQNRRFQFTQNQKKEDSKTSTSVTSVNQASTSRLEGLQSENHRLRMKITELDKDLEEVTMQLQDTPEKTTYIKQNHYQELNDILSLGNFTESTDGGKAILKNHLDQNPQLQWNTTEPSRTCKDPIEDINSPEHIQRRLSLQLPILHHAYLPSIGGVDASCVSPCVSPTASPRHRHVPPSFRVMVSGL

As for `NC[C@H](CC(=O)O)c1ccc(F)cc1`, the IC50 (in general, the point on the concentration scale where inhibition reaches its midpoint) on GABA B receptor came to 1.33 µM.

Turning to `Cc1ccsc1C(CN)CC(=O)O` (centres undefined), the results for the IC50 (at GABA B receptor; in assay [1]) were 124 µM and above 100 µM, respectively.

`NCC(CC(=O)O)c1ccc(Br)s1` (centres undefined): the IC50 is 1.86 µM at GABA B receptor and above 100 µM in assay [1].

On GABA B receptor, `NCC(CC(=O)O)c1ccc(O)cc1` (centres undefined) came in with an IC50 above 100 µM.

Turning to `NCC(CC(=O)O)c1cccs1` (centres undefined), the half-inhibitory concentration (IC50) on GABA B receptor was 9.72 µM; in assay [1], above 100 µM.

Turning to `NCC(CC(=O)O)c1cccc(Cl)c1` (centres undefined), the IC50 on GABA B receptor was 20 µM.

Take `NCC(CC(=O)O)c1cc(Br)cs1` (centres undefined): the IC50 on GABA B receptor is 39.1 µM; in assay [1] it was above 100 µM.

For the compound `Cc1ccc(C(CN)CC(=O)O)o1` (centres undefined), the IC50 (on GABA B receptor; in assay [1]) was above 100 µM in each case.

As for `NCC(CC(=O)O)c1ccccc1Cl` (centres undefined), the IC50 on GABA B receptor came out at 0.8 µM.

With `NCC(CC(=O)O)c1ccco1` (centres undefined), the IC50 (at GABA B receptor; in assay [1]) was above 100 µM throughout.

With `NCC(CC(=O)O)c1cc(Cl)cs1` (centres undefined), the IC50 on GABA B receptor is 45.3 µM; in assay [1], above 100 µM.

Take `Cc1ccc(C(CN)CC(=O)O)s1` (centres undefined): the IC50 on GABA B receptor is 1.34 µM; in assay [1] it was above 100 µM.

Consider `NCC(CC(=O)O)c1ccsc1` (centres undefined), for which the IC50 at GABA B receptor is 20.9 µM; in assay [1] it was above 100 µM.

For the compound `NCC(CC(=O)O)c1ccc(Cl)s1` (centres undefined) [4-AMINO-3- (5-CHLOROTHIEN-2-YL)BUTANOIC ACID], the values for the IC50 (at GABA B receptor; in assay [1]) were 0.61 µM and above 100 µM, respectively.
